# Measured values reported in patent US20160220557A1, “USE OF ACETYL-COA CARBOXYLASE INHIBITORS FOR TREATING ACNE VULGARIS” (PFIZER INC., priority 2013, published 2016).
# Tests used:
# [1] = tested on: ear skin malonyl-CoA; experiment: Ear skin malonyl-CoA levels in Syrian hamsters; format: in vivo, Syrian hamster; settings: topical 100 mg/ml (5 ul/ear), single dose, one hour after treatment
# Method: Male Syrian gold Hamster at ˜10 weeks were maintained adlibitum on standard hamster chow and water. Example 3 for topical delivery was prepared as a solution in a vehicle consisting of 70:30 (Ethanol:propylene glycol) at a concentration of 100 mg/ml. Topical administration of a single dose (5 ul/ear) was applied to hamster ears with a pipette (2-10 ul) tip adhering to 2 minute intervals following the dosing order. The dosing timing allowed for the formulation to spread evenly over an approximate 1 sq cm area and absorb/dry prior to returning the animal to the cage. […] One hour after dose administration animals were sacrificed by CO2 asphyxiation.
# Briefly, ear skin samples were prepared for malonyl-CoA analysis in the following manner. One 8 mm distal biopsy punch (using a 8 mm diameter Sklar Tru-punch—Sklar Instruments) (2 per animal) was taken just above the anatomical “V” in the aural cartilage to normalize sample area. The punch was then split into 2 layers (anterior and posterior). […]
# Frozen tissues were homogenized in 1 mL of 5% ice cold trichloroacetic acid using a polytron in a 2 mL polypropylene centrifuge tube. […] Tissue malonyl-CoA levels were determined by LCMS by the Metabolomics Laboratory Sanford-Burnham Medical Research Institute (Orlando, […]). Hamster ear skin malonyl-CoA levels were expressed as the percent of the vehicle control and are plotted in FIG. 6.
# [2] = tested on: de novo lipogenesis in ear skin and liver; experiment: Effect of oral and topical ACCi on DNL (14C-acetate incorporation) in Syrian hamsters; format: in vivo, Syrian hamster; settings: topical 100 mg/ml single dose, vs. vehicle
# Method: Male Syrian gold Hamster at ˜10 weeks were maintained adlibitum on standard hamster chow and water. […] Example 3 for topical delivery was prepared as a solution in a vehicle consisting of 70:30 (Ethanol:propylene glycol) at a concentration of 100 mg/ml. Topical administration of a single dose (5 ul/ear) was applied to hamster ears with a pipette (2-10 ul) tip adhering to 2 minute intervals following the dosing order. The dosing timing allowed for the formulation to spread evenly over an approximate 1 sq cm area and absorb/dry prior to returning the animal to the cage. 1 hour post ACCi dose each animal received an IP injection of ^14C-labeled acetate (ARC0158B diluted in saline) following the 2 minute interval timing format. Each animal received an individually calculated amount of ^14C-acetate based on body weight (0.1 μCi/g in a dosing volume of 2 μl/g). One hour after the ^14C-Acetate injection animals were sacrificed by CO2 asphyxiation.
# Liver and ear skin were collected for de novo lipogenesis determinations (^14C incorporation to lipid). Briefly, 2 liver punches totaling ˜400 mg of liver were collected from the bifurcated median lobe of each animal (using a 8 mm diameter Sklar Tru-punch—Sklar Instruments), rinsed with saline and blotted dry. The tissues were placed into pre-weighed in glass tubes (Pyrex 9826-16×125 mm with PTFE lined caps) containing NaOH (1.5 mL of 2.5 M).
# Ear skin samples were prepared for analysis in the following manner. One 8 mm distal biopsy punch (using an 8 mm diameter Sklar Tru-punch—Sklar Instruments) (2 per animal) was taken just above the anatomical “V” in the aural cartilage to standardize sample collection area. The punch was then split into 2 layers (anterior and posterior). The anterior (front) surface is retained for analysis. The anterior skin was placed into pre-weighed in glass tubes (Pyrex 9826-16×125 mm with PTFE lined caps) containing NaOH (1.5 mL of 2.5 M).
# Upon completion of the study, the liver and ear skin samples in NaOH were weighed and this weight was used to calculate the mass of the tissue collected. The capped tubes were heated in an dry oven (˜60° C.) until the tissue was fully degraded (˜4-6 hr, gentle vortexing 2-3 times during heating). Following degradation and cooling absolute ethanol (2.5 mL) was added to each sample. The tubes were recapped and vigorously mixed (vortexed) for 60 seconds and allowed to settle overnight at RT. Petroleum ether (4.8 mL) was added to each tube, recapped and the samples were vigorous mixed (60 sec). […] Aquasol-2 scintillation fluid (10 mL) (or other compatible scintillation fluid) was added to each vial and after vortexing the samples were counted in an appropriate scintillation counter (e g. Wallac Rack-Beta 1409 LSC). […]
# [3] = tested on: de novo lipogenesis (DNL); experiment: Suppression of DNL in healthy human volunteers; format: in vivo; settings: dose-dependent
# [4] = biological target: T1, CYP2D6 (Homo sapiens, UniProt P10635); experiment: P450 inhibition in liver microsomes with probe substrates; format: in vitro ADME
# T1 construct: from tissue; host or cells: liver microsomes
# T1 sequence (P10635 whole entry): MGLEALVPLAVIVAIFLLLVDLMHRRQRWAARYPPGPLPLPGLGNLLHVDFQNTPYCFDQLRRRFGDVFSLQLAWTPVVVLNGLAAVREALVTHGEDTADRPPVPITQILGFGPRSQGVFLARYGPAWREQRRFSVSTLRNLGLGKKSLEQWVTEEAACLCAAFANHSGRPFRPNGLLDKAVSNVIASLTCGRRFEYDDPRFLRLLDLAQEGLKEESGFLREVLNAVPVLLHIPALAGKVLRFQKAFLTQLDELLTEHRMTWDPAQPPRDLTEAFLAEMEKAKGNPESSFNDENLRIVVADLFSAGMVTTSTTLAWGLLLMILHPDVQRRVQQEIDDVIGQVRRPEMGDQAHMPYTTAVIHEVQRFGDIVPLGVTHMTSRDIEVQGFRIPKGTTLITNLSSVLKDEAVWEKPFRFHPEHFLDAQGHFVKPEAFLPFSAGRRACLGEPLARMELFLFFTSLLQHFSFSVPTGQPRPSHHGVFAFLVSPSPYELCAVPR
# [5] = biological target: T2, recombinant human ACC2 (rhACC2) (Homo sapiens, UniProt O00763, V2141I); experiment: Transcreener ADP detection FP assay, recombinant human ACC2 inhibition; format: biochemical; settings: recombinant human ACC2, 50 μM ATP; read-out: Transcreener Assay hACC2 IC50
# T2 construct: made in house; host or cells: CHO cells, tetracycline-induced (pcDNA5 FRT TO-TOPO)
# T2 sequence (O00763 whole entry V2141I): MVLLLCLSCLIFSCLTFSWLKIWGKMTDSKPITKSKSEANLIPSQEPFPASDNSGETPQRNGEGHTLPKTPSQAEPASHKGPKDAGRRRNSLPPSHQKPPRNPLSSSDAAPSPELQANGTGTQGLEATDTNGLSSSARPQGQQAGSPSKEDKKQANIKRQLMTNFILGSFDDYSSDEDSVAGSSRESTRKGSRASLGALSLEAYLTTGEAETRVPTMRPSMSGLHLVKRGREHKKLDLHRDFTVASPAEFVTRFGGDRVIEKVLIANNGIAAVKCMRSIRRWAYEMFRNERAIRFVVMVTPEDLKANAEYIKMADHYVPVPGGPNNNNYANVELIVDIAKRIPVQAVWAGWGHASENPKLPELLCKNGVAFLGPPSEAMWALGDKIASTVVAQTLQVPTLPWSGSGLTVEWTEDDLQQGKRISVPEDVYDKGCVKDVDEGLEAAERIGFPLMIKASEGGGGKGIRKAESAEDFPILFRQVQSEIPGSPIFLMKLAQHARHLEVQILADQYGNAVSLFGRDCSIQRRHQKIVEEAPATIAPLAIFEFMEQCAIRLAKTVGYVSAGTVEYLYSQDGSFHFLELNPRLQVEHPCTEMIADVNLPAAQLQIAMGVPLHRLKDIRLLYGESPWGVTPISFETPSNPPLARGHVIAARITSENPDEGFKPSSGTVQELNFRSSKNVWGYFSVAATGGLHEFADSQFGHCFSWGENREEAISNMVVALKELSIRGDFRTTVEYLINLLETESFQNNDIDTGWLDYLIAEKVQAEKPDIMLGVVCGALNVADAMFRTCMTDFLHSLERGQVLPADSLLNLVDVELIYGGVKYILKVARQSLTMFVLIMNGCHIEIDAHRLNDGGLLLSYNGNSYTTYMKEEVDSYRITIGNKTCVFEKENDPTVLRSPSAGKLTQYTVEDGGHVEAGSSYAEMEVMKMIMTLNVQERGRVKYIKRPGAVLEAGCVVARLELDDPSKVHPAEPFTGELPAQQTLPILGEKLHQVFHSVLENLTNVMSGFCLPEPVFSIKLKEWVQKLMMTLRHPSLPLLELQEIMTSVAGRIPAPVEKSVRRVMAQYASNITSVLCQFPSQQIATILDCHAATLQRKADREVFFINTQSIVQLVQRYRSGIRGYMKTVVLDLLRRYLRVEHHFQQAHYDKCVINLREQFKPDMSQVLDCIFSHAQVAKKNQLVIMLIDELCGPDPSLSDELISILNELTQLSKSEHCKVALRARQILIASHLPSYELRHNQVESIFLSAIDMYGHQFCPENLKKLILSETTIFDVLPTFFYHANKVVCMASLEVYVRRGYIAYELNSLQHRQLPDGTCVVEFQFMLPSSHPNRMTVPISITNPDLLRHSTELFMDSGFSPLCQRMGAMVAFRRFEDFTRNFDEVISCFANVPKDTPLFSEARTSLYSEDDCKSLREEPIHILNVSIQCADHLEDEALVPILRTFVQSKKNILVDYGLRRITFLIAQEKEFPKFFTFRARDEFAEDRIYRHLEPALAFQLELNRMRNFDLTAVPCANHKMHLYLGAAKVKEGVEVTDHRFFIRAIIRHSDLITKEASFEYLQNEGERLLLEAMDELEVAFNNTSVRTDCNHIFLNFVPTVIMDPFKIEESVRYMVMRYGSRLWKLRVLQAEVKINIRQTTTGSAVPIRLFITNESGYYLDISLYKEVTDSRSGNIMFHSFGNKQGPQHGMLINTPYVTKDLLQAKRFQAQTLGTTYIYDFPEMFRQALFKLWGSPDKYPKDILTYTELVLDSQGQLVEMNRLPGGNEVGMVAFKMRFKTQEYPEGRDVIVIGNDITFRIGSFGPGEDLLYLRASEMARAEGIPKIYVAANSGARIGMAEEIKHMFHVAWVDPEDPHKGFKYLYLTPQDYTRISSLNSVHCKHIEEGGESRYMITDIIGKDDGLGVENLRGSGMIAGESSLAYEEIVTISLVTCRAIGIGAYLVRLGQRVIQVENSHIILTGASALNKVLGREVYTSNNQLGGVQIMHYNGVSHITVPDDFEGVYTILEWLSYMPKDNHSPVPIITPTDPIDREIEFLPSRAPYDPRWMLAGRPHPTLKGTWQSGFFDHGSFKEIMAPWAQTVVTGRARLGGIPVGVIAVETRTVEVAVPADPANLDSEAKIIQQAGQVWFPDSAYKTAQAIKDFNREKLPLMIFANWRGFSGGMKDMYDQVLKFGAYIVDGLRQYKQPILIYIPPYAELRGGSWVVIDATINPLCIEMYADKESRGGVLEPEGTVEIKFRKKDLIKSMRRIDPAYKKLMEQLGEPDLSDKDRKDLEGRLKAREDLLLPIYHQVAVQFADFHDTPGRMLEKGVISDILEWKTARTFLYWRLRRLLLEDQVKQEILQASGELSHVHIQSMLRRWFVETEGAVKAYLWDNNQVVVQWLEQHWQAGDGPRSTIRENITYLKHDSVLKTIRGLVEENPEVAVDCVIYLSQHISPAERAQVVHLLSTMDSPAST
SMILES,suppression of hamster ear skin malonyl-CoA relative to vehicle [1] [%],incorporation of de novo synthesized fatty acids in liver [2],incorporation of de novo synthesized fatty acids in skin [2],suppression of DNL in healthy human volunteers [3],IC50 [4] [µM],IC50 [5] [µM]
"CC(C)n1ncc2c1C(=O)CC1(CCN(C(=O)c3ccc4ccc(N)nc4c3)CC1)C2 [Example 3, 1′-(2-aminoquinoline-7-carbonyl)-1-isopropyl-4,6-dihydrospiro[indazole-5,4′-piperidin]-7(1H)-one]",87,failed to inhibit,failed to inhibit,–,–,–
"Cc1nc2ccc(C(=O)N3CCC4(CC3)CC(=O)c3c(cnn3C(C)C)C4)cc2[nH]1 [Example 1, 1-isopropyl-1′-(2-methyl-1H-benzo[d]imidazole-5-carbonyl)-4,6-dihydrospiro[indazole-5,4′-piperidin]-7(1H)-one]",–,–,–,up to 80%,> 30,0.045
